Measured values published in the NIST ThermoML archive (doi:10.1016/j.jct.2008.11.008).
Numbers after ± are expanded uncertainties.

experiment: molar enthalpy of vaporization or sublimation; settings: 298.15 K; Liquid; Calvet microcalorimetry

SMILES | molar enthalpy [kcal/mol]
COc1ccccc1Br [1-bromo-2-methoxybenzene] | 14.8 ± 0.621
COc1cccc(Br)c1 [1-bromo-3-methoxybenzene] | 13.9 ± 0.574
COc1ccc(Br)cc1 [1-bromo-4-methoxybenzene] | 13.9 ± 0.574
